Experiments:
[1] = tested on: OVCAR5 cells; test: Cell cycle analysis by flow cytometry, OVCAR5; format: cell-based; details: OVCAR5, 0.5 µM, 48 h
Method: (§1) The effect of the compounds on cell cycle distribution was evaluated following a previously reported method. Briefly, six-well plates (Sigma-Aldrich, NSW, Australia) were seeded with about 1–2 × 10^5 cells/well in 2 mL growth medium, incubated at 37 °C and 5% CO2 overnight, and treated with various concentrations of the test compounds and incubated for 48 h. The wells were collected by trypsinization, transferred into fluorescence-activating cell sorting (FACS) tubes, washed with 1 × phosphate-buffered saline (1 × PBS) twice, fixed in 70% (v/v) ice-cold ethanol for 15 min, and centrifuged at 300× g for 5 min. The cell pellets were then collected, stained with 200 µL of the cell cycle solution (comprising 50.0 μg/mL PI, 0.1 mg/mL RNase A, and 0.05% Triton X-100), and incubated for 1.5 h at room temperature in the dark. Finally, the DNA content was determined by a flow cytometer (CytoFLEX) and analyzed by CytExpert 2.1 software (Beckman Coulter, Brea, CA, USA).

[2] = tested on: OVCAR5 cells; test: Annexin V/PI apoptosis assay, OVCAR5; format: cell-based; details: OVCAR5, 0.5 µM, 48 h
Method: (§2) Annexin V-fluorescein isothiocyanate (FITC) apoptosis detection kit I (consisting of a ten-time stock solution of binding buffer, FITC–annexin V, and PI staining solution) was used to determine the effect of the compounds on cancer cell survival as previously reported. Briefly, six-well plates (Sigma-Aldrich, NSW, Australia) were seeded with about 1–2 × 10^5 cells/well in 2 mL growth medium, incubated at 37 °C and 5% CO2 overnight, treated with various concentrations of the test compounds, and incubated for 48 h. The wells were collected by trypsinization, transferred into FACS tubes, washed twice with 1 × PBS, and centrifuged at 300× g for 5 min. The pellets were then suspended in 100 µL of 1 × binding buffer and incubated in the dark with 3 µL of PI and 3 µL of FITC-conjugated annexin V solutions for 15 min. Finally, 200 µL of binding buffer was added to each sample and analyzed by the CytoFLEX cytometer. The extent of apoptotic cell death was quantified as the sum of the percentages of early apoptotic cells (annexin V-positive and PI-negative) and late apoptotic cells (both annexin–V- and PI-positive) and presented graphically as a contour diagram relative to the untreated control.

[3] = tested on: OVCAR5 cells; test: Colony formation (crystal violet), OVCAR5; format: cell-based; details: OVCAR5, 10 days; 15 at 0.5 and 2 µM, CYC065 at 0.5 µM
Method: (§3) Briefly, ovarian cancer cells (i.e., A2780, OVCAR5, and OV90) seeded in six-well plates were adhered for 6 h and treated with 15. The medium that contained the compound was then changed every 72 h. Ten days after treatment, the cells were washed with PBS, fixed, and stained with crystal violet staining solution (0.05% crystal violet, 1% formaldehyde, 1% PBS, and 1% ethanol), and colonies were quantified using ImageJ software (National Institute of Health, Maryland, USA), with data presented as percentages of the control cells.

[4] = tested on: A2780 cells; test: Annexin V/PI apoptosis assay, A2780; format: cell-based; details: A2780, 0.5 µM, 48 h
Method: as §2

[5] = tested on: OV90 cells; test: Colony formation (crystal violet), OV90; format: cell-based; details: OV90, 10 days; 15 at 0.5 and 2 µM, CYC065 at 0.5 µM
Method: as §3

[6] = tested on: A2780 cells; test: Colony formation (crystal violet), A2780; format: cell-based; details: A2780, 10 days; 15 at 0.5 and 2 µM, CYC065 at 0.5 µM
Method: as §3

[7] = tested on: A2780 cells; test: Cell cycle analysis by flow cytometry, A2780; format: cell-based; details: A2780, 0.5 µM, 48 h
Method: as §1

[8] = tested on: A2780 ovarian cancer cells; parameters: method as in PMID 36706608; details: previously reported data for 1; cited from earlier work
[9] = biological target: CDK1/cyclin B (CDK1B) (Homo sapiens, UniProt P06493); parameters: method as in PMID 36706608; details: previously reported data for 1; cited from earlier work
[10] = biological target: CDK9/cyclin T1 (CDK9T1) (Homo sapiens, UniProt P50750); parameters: method as in PMID 36706608; details: previously reported data for 1; cited from earlier work
[11] = biological target: CDK5/p25 (CDK5p25) (Homo sapiens, UniProt Q00535); parameters: method as in PMID 36706608; details: previously reported data for 1; cited from earlier work
[12] = biological target: CDK2/cyclin E (CDK2E) (Homo sapiens, UniProt P24941); parameters: method as in PMID 36706608; details: previously reported data for 1; cited from earlier work

CDK5/p25 (CDK5p25), sequence (Q00535 whole entry): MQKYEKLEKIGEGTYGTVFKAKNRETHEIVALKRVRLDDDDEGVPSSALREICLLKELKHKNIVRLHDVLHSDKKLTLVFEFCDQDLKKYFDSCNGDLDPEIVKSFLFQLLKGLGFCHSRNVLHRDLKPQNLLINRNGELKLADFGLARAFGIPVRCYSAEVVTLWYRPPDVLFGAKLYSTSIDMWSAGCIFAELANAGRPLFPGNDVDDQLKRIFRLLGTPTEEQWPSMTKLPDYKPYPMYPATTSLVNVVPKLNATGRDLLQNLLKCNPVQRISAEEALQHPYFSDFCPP
CDK5/p25 (CDK5p25), sequence (Q15078 99-307 partner limits assumed): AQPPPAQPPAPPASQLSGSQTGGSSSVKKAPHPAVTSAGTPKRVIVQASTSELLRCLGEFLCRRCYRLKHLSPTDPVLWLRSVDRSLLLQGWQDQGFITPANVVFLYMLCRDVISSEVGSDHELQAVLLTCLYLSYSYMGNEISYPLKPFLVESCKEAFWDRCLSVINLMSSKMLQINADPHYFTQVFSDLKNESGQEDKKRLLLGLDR
CDK9/cyclin T1 (CDK9T1), sequence (P50750 whole entry): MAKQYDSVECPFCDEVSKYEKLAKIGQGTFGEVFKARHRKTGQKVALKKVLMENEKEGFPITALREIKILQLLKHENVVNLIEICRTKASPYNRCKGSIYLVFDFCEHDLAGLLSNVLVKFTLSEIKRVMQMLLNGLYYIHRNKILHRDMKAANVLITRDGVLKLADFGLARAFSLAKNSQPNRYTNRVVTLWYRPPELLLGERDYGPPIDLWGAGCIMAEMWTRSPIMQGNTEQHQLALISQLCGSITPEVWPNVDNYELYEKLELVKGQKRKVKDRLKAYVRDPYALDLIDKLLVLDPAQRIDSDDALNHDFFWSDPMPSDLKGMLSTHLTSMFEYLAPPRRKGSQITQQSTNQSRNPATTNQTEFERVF
CDK9/cyclin T1 (CDK9T1), sequence (O60563 whole entry partner): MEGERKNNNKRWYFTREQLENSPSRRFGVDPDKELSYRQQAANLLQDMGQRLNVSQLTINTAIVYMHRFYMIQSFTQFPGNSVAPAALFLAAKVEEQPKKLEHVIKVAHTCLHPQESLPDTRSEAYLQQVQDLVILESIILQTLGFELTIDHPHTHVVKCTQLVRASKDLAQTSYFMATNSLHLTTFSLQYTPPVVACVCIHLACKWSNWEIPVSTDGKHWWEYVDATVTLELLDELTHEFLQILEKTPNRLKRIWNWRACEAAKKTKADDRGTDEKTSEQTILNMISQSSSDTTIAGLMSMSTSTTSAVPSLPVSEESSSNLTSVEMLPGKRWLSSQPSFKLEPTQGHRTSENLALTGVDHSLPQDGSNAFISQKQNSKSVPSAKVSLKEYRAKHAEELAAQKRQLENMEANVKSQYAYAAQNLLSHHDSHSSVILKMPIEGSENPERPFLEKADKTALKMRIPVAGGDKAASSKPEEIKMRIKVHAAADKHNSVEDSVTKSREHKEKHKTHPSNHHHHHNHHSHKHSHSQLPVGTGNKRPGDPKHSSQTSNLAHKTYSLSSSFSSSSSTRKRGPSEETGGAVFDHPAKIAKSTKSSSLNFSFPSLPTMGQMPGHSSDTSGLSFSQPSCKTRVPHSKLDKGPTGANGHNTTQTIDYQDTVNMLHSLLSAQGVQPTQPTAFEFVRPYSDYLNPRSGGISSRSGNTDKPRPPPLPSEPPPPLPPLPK
CDK1/cyclin B (CDK1B), sequence (P06493 whole entry): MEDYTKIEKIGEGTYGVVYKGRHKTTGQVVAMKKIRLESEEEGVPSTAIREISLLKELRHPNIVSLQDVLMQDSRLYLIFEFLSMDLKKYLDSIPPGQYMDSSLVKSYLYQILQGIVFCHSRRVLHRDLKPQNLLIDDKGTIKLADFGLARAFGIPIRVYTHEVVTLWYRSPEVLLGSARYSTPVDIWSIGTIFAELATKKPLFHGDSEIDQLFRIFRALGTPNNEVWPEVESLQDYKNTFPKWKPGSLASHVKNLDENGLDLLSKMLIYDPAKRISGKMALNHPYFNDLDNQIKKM
CDK1/cyclin B (CDK1B), sequence (P14635 whole entry partner): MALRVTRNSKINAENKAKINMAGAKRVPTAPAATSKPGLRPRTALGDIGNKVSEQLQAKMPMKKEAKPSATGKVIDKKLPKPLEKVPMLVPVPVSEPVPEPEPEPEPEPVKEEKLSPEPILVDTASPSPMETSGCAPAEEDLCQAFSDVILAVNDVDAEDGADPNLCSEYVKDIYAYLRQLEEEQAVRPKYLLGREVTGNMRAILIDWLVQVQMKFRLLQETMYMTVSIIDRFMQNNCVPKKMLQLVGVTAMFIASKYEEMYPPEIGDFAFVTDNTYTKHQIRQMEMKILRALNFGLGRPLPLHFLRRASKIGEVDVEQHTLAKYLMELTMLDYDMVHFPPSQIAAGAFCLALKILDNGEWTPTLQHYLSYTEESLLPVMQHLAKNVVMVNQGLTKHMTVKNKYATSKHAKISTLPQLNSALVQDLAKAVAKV

With `CC[C@H](Nc1nc(NCc2cnc(C)cc2C)c2ncn(C(C)C)c2n1)[C@@H](C)O` [CYC065, reference compound] the “increment in the subpopulation of G2/M cells compared to the vehicle control” value [1] was 12%, the viability at 0.5 µM ([2]; Homo sapiens, OVCAR-5, read-out: Q1-LL, viable cells) was 81.9% and the “apoptosis (annexin V positive, early + late)” value [2] was 16%. The “effect on colony formation” value [3] was “lowest effect”, the “apoptosis (annexin V positive, early + late)” value [4] was 73% and the viability at 0.5 µM ([4]; Homo sapiens, read-out: Q1-LL, viable cells) was 26%. The “effect on colony formation” value [5] was “reduced”, the “effect on colony formation” value [6] was “reduced” and the S-phase cells [7] was 24%. It also gave a Sub-G1 cells [7] of 27%.

For `Cn1cc(-c2nc(Nc3cccc(S(N)(=O)=O)c3)ncc2F)cn1` [Compound 1, 3-((5-fluoro-4-(1-methyl-1H-pyrazol-4-yl)pyrimidin-2-yl)amino)benzenesulfonamide], the GI50 [8] is listed as 18 nM, the Ki [9] is listed as 5 nM and the Ki [10] is listed as 26 nM. The Ki [11] was 77 nM and the Ki [12] was 23 nM.

Source: publication PMC10096391, “Discovery of N,4-Di(1H-pyrazol-4-yl)pyrimidin-2-amine-Derived CDK2 Inhibitors as Potential Anticancer Agents: Design, Synthesis, and Evaluation” (Molecules, 2023)
